Measurements from patent publication US8715681B2, “Minimal motifs of linear B-cell epitopes in L1 protein from human papillomavirus type 58 and their applications” (Hengsun Pharmaceutical Technology Co. Ltd., priority 2012, dated 2014).
Ends that are not written are not given here.

Test system: rabbit serum raised against r-L1C
Assay: Epitope mapping of 18-mer peptide-GST188 fusion proteins by Western blotting with anti-r-L1C rabbit serum
Type: binding
Details: 18-mer peptides P25-P60 fused with GST188
From the text: 1. The clone of HPV 58 genome was purchased from commercial resource (20). With regular PCR method, the N terminal and C terminal of full-length HPV58-L1 cDNA were amplified from the HPV 58 genome we purchased and then were reconstructed into pRSET-C fusion expression plasmid. The expressed r-L1N^36-233 and r-L1C^226-524 proteins were purified from E. coli, and finally used as antigen to immunize three New Zealand white rabbits to prepare rabbit antisera against r-L1N^36-233 or r-L1C^226-524, respectively.
2. Previously we have constructed a fusion expression plasmid pXXGST-1 specially used for 8/18-mer short peptide biosynthesis in epitope mapping. In this plasmid, the macromolecule protein carrier was a truncated glutathione S-transferases (GST) with 188 residues (GST188) (China Patent NO.: 200710173305.2; 18). DNA recombinant technology was employed to express two sets of 18-mer peptides overlapping each other by 10 residues covering the domains of L1N^36-233 and L1C^226-524 fused with GST188, respectively. Specifically the DNA fragments encoding different short peptide were inserted into pXXGST-1 plasmid after annealing of chemically synthesized plus and minus DNA strands to double-strand DNA. […]

P27: biosynthetic 18-mer peptide of HPV58 L1 fused with GST188; contains DVPID (NKSDVPIDICNSTCKYPD; not fully specified (N-terminus); cysteine pairing not given here)
reactivity in Western blotting: reactive
